Data published in patent US20090176664A1, “High density peptide arrays containing kinase or phosphatase substrates” (priority 2007, published 2009).

Test system: Src and Abl kinases
Experiment: Kinase inhibition assay with different kinase inhibitors on peptide array with Abl and Src peptide substrates
Assay type: biochemical
Conditions: FIG. 23; Src and Abl kinases plus one of three inhibitors
Experimental: Activity is measured using peptide arrays with Abl and Src peptide substrates.

specificity of the kinase inhibitor for their respective kinase: expected specificity
Structure (SMILES): COc1cc(Nc2c(C#N)cnc3cc(OCCCN4CCN(C)CC4)c(OC)cc23)c(Cl)cc1Cl [SKI606]
